Measured values as given in ChEMBL document CHEMBL1212896, “Discovery of novel cyanodihydropyridines as potent mineralocorticoid receptor antagonists” (J Med Chem, 2010).

Biological target: T1, Mineralocorticoid receptor (Homo sapiens, UniProt P08235)
T1 sequence (P08235 whole entry): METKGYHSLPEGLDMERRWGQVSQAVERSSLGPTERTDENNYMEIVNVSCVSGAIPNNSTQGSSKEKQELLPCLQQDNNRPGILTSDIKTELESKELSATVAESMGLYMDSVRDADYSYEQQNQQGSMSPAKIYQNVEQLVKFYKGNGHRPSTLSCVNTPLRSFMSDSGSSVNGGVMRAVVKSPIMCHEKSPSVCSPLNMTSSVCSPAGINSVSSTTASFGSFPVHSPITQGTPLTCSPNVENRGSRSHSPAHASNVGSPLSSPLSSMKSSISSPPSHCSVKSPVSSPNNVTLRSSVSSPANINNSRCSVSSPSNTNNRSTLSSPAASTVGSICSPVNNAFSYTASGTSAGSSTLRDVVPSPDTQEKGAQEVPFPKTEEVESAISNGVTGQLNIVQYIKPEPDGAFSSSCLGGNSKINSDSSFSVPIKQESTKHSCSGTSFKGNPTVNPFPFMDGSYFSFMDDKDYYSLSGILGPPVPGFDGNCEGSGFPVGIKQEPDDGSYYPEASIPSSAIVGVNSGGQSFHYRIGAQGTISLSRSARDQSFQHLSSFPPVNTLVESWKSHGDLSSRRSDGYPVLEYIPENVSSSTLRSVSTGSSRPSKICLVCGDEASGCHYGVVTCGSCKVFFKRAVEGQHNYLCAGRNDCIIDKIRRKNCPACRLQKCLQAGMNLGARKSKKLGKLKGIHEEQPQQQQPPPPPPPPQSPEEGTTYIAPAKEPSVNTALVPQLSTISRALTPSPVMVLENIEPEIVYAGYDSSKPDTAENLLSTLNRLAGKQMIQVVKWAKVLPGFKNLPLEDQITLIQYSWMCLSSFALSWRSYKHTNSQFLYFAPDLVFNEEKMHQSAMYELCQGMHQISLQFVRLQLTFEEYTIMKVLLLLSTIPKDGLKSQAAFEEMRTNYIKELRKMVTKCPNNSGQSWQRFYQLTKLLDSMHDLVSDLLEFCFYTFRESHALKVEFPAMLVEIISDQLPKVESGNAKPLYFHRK
Description: Antagonist activity at mineralocorticoid receptor LBD expressed in human HUH7 cells coexpressing GAL4 by luciferase reporter gene assay

IC50 [nM]	Compound
923	CCOC(=O)C1=C(c2ccccc2)NC(C)=C(C#N)C1c1ccccc1Cl (centres undefined)
1090	CCOC(=O)C1=C(c2ccc(Cl)cc2)NC(C)=C(C#N)C1c1ccccc1Cl (centres undefined)
12000	COC(=O)C1=C(C)NC(C)=C(C(=O)OC(C)(C)C)C1c1ccc(C)cc1 (centres undefined)
2020	COC(=O)C1=C(C)NC(C)=C(C(=O)OC(C)(C)C)C1c1ccccc1F (centres undefined)
208	COC(=O)C1=C(C(C)C)NC(C)=C(C#N)C1c1ccccc1Cl (centres undefined)
553	COC(=O)C1=C(C)NC(C)=C(C(=O)OC(C)(C)C)C1c1ccccc1OC (centres undefined)
329	CC1=C(C#N)C(c2ccc(F)cc2)C(C(=O)OC(C)(C)C)=C(C)N1 (centres undefined)
574	COC(=O)C1=C(C)NC(C)=C(C(=O)OC(C)(C)C)C1c1ccc(Cl)c(F)c1 (centres undefined)
888	COC(=O)C1=C(C)NC(C)=C(C(=O)OC(C)(C)C)C1c1cccc(OC)c1 (centres undefined)
208	COC(=O)C1=C(C)NC(C)=C(C(=O)OC(C)(C)C)C1c1ccccc1C (centres undefined)
78	COC(=O)C1=C(C)NC(C)=C(C(=O)OC(C)(C)C)C1c1ccc(F)cc1Cl (centres undefined)
2570	COC(=O)C1=C(C)NC(C)=C(C(=O)OC(C)(C)C)C1c1ccc(O)cc1 (centres undefined)
655	COCC1=C(C(=O)OC)C(c2ccccc2Cl)C(C#N)=C(C)N1 (centres undefined)
2830	COC(=O)C1=C(C)NC(C)=C(C(=O)OC(C)(C)C)C1c1cccc(O)c1 (centres undefined)
3740	COCCN1C(C)=C(C#N)C(c2ccc(F)cc2F)C(C(=O)OC(C)(C)C)=C1C (centres undefined)
309	COC(=O)C1=C(C)NC(C)=C(C(=O)OC(C)(C)C)C1c1ccc(C(F)(F)F)cc1 (centres undefined)
702	COC(=O)C1=C(C)NC(C)=C(C(=O)OC(C)(C)C)C1c1cccc(C(F)(F)F)c1 (centres undefined)
661	CC1=C(C#N)C(C)(c2ccc(F)cc2)C(C(=O)OC(C)(C)C)=C(C)N1 (centres undefined)
201	CC1=C(C#N)C(c2ccc(F)cc2F)C(C(=O)OC(C)(C)C)=C(C)N1 (centres undefined)
